Source: patent US8367658B2, “Pyrazin-2-yl-pyridin-2-yl-amine and pyrazin-2-yl-pyrimidin-4-yl-amine compounds and their use” (Cancer Research Technology Limited, priority 2007, dated 2013)
pIC50: −log10 of the molar value. Values joined by “and” are separate entries in the source; they are usually repeats but may differ in a detail not shown here. Equal values may be shown once.

These compounds were tested against T1, CHK1 (Homo sapiens, UniProt O14757) (assay: CHK1 kinase function inhibition assay (DELFIA, phosphorylation of a CDC25C peptide)). Conditions: CHK1 1 nM, ATP 30 μM, 30 minutes at room temperature.
T1 sequence (O14757 1-476): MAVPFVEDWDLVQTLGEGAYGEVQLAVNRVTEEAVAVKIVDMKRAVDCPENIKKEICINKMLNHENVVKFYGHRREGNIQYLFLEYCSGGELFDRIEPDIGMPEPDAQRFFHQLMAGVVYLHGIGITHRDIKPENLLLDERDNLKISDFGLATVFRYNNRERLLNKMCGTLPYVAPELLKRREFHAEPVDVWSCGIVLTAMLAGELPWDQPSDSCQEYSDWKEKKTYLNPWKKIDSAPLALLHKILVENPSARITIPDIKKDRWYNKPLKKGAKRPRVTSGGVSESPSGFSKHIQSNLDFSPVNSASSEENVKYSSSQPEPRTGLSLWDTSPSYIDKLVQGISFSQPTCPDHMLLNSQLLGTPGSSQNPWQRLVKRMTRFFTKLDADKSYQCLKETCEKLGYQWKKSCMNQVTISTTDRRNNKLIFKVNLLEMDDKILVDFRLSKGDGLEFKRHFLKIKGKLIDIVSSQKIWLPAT
Assay type: biochemical
In short: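 Phosphorylation of a CDC25C peptide detected by DELFIA with a phospho-specific antibody. Kinase reaction ran 30 min at room temperature, was stopped with EDTA buffer, then captured on neutravidin-coated plates for 1 h before time-resolved fluorescence read-out with enhancement solution.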

| Structure (SMILES) | pIC50 |
| --- | --- |
| COCCOc1ccc(-c2cnc(Nc3cnc(C#N)cn3)cc2NC2CCN(C)CC2)cc1 [Compound Y-117, 5-(5-(4-(2-Methoxyethoxy)phenyl)-4-(1-methylpiperidin-4-ylamino)pyridin-2-ylamino)pyrazine-2-carbonitrile] | ≥ 7.00 |
| COC(=O)c1cnc(Nc2cnc(OC)cn2)cc1NC1CC2CCC(C1)N2C (stereo not drawn) [Compound Y-037, Methyl 6-(5-methoxypyrazin-2-ylamino)-4-(8-methyl-8-azabicyclo[3.2.1]octan-3-ylamino)nicotinate] | ≥ 7.00 |
| N#Cc1cnc(Nc2cc(OCC3CCOC3)c(NC(=O)CCC3CCNCC3)cn2)cn1 (stereo not drawn) [Compound Y-068, N-(6-(5-Cyanopyrazin-2-ylamino)-4-((tetrahydrofuran-3-yl)methoxy)pyridin-3-yl)-3-(piperidin-4-yl)propanamide] | 5.00 to 6.00 |
| COCCOc1ccc(-c2cnc(Nc3cnc(C#N)cn3)cc2NC[C@H]2CNCCO2)cc1 [Compound Y-157, (R)-5-(5-(4-(2-Methoxyethoxy)phenyl)-4-(morpholin-2-ylmethylamino)pyridin-2-ylamino)pyrazine-2-carbonitrile] | ≥ 7.00 |
| N#Cc1cnc(Nc2cc(NCC3CCNCC3)c(C(=O)N3CCCC3)cn2)cn1 [Compound Y-087, 5-(4-(Piperidin-4-ylmethylamino)-5-(pyrrolidine-1-carbonyl)pyridin-2-ylamino)pyrazine-2-carbonitrile] | ≥ 7.00 |
| CN(C)CC(=O)Nc1cnc(Nc2cnc(C#N)cn2)cc1NC1CC2CCC(C1)N2C (stereo not drawn) [Compound Y-015, N-(6-(5-Cyanopyrazin-2-ylamino)-4-(8-methyl-8-aza-bicyclo[3.2.1]octan-3-ylamino)pyridin-3-yl)-2-(dimethylamino)acetamide] | 5.00 to 6.00 |
| N#Cc1cnc(Nc2cc(N3CCOC(CN)C3)ncn2)cn1 (stereo not drawn) [Compound Z-014, 5-(6-(2-(Aminomethyl)morpholino)pyrimidin-4-ylamino)pyrazine-2-carbonitrile] | 5.00 to 6.00 |
| COC(=O)c1cnc(Nc2cnc(C#N)cn2)cc1NC1CC2CCCC(C1)N2C (stereo not drawn) [Compound Y-071, Methyl 6-(5-cyanopyrazin-2-ylamino)-4-(9-methyl-9-azabicyclo[3.3.1]-nonan-3-ylamino)nicotinate] | 6.00 to 7.00 |
| N#Cc1cnc(Nc2cc(OCC3CCNCC3)c(N)cn2)cn1 [Compound Y-038, 5-(5-Amino-4-(piperidin-4-ylmethoxy)pyridin-2-ylamino)pyrazine-2-carbonitrile] | 5.00 to 6.00 |
| COC(=O)c1cnc(Nc2cnc(C#N)cn2)cc1NCC1CCCCN1 (stereo not drawn) [Compound Y-073, Methyl 6-(5-cyanopyrazin-2-ylamino)-4-(piperidin-2-ylmethylamino)-nicotinate] | ≥ 7.00 |
| N#Cc1cnc(Nc2cc(NCCCN)c(N)cn2)cn1 [Compound Y-042, 5-(5-Amino-4-(3-aminopropylamino)pyridin-2-ylamino)pyrazine-2-carbonitrile] | ≥ 7.00 |
| N#Cc1cnc(Nc2cc(NCCCCN)ncn2)cn1 [Compound Z-016, 5-(6-(4-Aminobutylamino)pyrimidin-4-ylamino)pyrazine-2-carbonitrile] | ≥ 6.00 and 6.22 and 6.00 to 7.00 |
| CN1CCC(Nc2cc(Nc3cnc(C#N)cn3)ncc2Br)CC1 [Compound Y-110, 5-(5-Bromo-4-(1-methylpiperidin-4-ylamino)pyridin-2-ylamino)pyrazine-2-carbonitrile] | ≥ 7.00 |
| N#Cc1cnc(Nc2cc(NCC3CNCCO3)c(C(=O)Nc3ccccc3)cn2)cn1 (stereo not drawn) [Compound Y-102, 6-(5-Cyanopyrazin-2-ylamino)-4-(morpholin-2-ylmethylamino)-N-phenylnicotinamide] | ≥ 7.00 |
| CN(C)CC(=O)Nc1cnc(Nc2cnc(C#N)cn2)cc1NCC1CCNCC1 [Compound Y-010, N-(6-(5-Cyanopyrazin-2-ylamino)-4-(piperidin-4-ylmethylamino)pyridin-3-yl)-2-(dimethylamino)acetamide] | ≥ 6.00 and 6.00 to 7.00 |
| COCCCOc1ccc(-c2cnc(Nc3cnc(C#N)cn3)cc2NCC2CCNCC2)cc1 [Compound Y-133, 5-(5-(4-(3-Methoxypropoxy)phenyl)-4-(piperidin-4-ylmethylamino)pyridin-2-ylamino)pyrazine-2-carbonitrile] | 6.00 to 7.00 |
| CN1CCC(Nc2cc(Nc3cnc(C#N)cn3)ncc2C(=O)O)CC1 [Compound Y-104, 6-(5-Cyanopyrazin-2-ylamino)-4-(1-methylpiperidin-4-ylamino)nicotinic acid] | 5.00 to 6.00 |
| CCNC(=O)c1cnc(Nc2cnc(C#N)cn2)cc1NC1CCN(C)CC1 [Compound Y-085, 6-(5-Cyanopyrazin-2-ylamino)-N-ethyl-4-(1-methylpiperidin-4-ylamino)nicotinamide] | ≥ 7.00 |

| Structure (SMILES) | pIC50 |
| --- | --- |
| N#Cc1cnc(Nc2cc(NCCC[C@H](N)C(=O)Nc3ccccc3)c(N)cn2)cn1 [Compound Y-052, (S)-2-Amino-5-(5-amino-2-(5-cyanopyrazin-2-ylamino)pyridin-4-ylamino)-N-phenylpentanamide] | 5.00 to 6.00 |
| N#Cc1cnc(Nc2cc(NC[C@H]3CCCNC3)c(N)cn2)cn1 [Compound Y-047, (S)-5-(5-Amino-4-(piperidin-3-ylmethylamino)pyridin-2-ylamino)pyrazine-2-carbonitrile] | ≥ 7.00 |
| COc1ccc(-c2cnc(Nc3cnc(C#N)cn3)cc2NCC2CCNCC2)cc1 [Compound Y-126, 5-(5-(4-Methoxyphenyl)-4-(piperidin-4-ylmethylamino)pyridin-2-ylamino)pyrazine-2-carbonitrile] | ≥ 7.00 |
| N#Cc1cnc(Nc2cc(NCC3CCCNC3)c(NC(=O)CCN3CCOCC3)cn2)cn1 (stereo not drawn) [Compound Y-055, N-(6-(5-Cyanopyrazin-2-ylamino)-4-(piperidin-3-ylmethylamino)pyridin-3-yl)-3-morpholinopropanamide] | 6.00 to 7.00 |
| CN1CCC(Nc2cc(Nc3cnc(C#N)cn3)ncc2-c2ccsc2)CC1 [Compound Y-112, 5-(4-(1-methylpiperidin-4-ylamino)-5-(thiophen-3-yl)pyridin-2-ylamino)pyrazine-2-carbonitrile] | ≥ 7.00 |
| N#Cc1cnc(Nc2cc(NCCC[C@H](N)C(=O)Nc3ccccc3)ncn2)cn1 [Compound Z-010, (S)-2-Amino-5-(6-(5-cyanopyrazin-2-ylamino)pyrimidin-4-ylamino)-N-phenylpentanamide] | ≥ 6.00 and 6.00 to 7.00 |
| N#Cc1cnc(Nc2cc(NCC3CCNCC3)c(C(=O)NCCO)cn2)cn1 [Compound Y-088, 6-(5-Cyanopyrazin-2-ylamino)-N-(2-hydroxyethyl)-4-(piperidin-4-ylmethylamino)nicotinamide] | 6.00 to 7.00 |
| COc1ccc(CCC(=O)Nc2cnc(Nc3cnc(C#N)cn3)cc2NCC2CCNCC2)cc1 [Compound Y-012, N-(6-(5-Cyanopyrazin-2-ylamino)-4-(piperidin-4-ylmethylamino)pyridin-3-yl)-3-(4-methoxyphenyl)propanamide] | 5.00 to 6.00 |
| COC(=O)c1cnc(Nc2cnc(C#N)cn2)cc1NCC1(F)CCNCC1 [Compound Y-083, Methyl 6-(5-Cyanopyrazin-2-ylamino)-4-((4-fluoropiperidin-4-yl)methylamino)nicotinate] | ≥ 7.00 |
| N#Cc1cnc(Nc2cc(NCC3CCCNC3)c(-n3ccc(C(=O)NCCCO)c3)cn2)cn1 (stereo not drawn) [Compound Y-067, 1-(6-(5-Cyanopyrazin-2-ylamino)-4-(piperidin-3-ylmethylamino)pyridin-3-yl)-N-(3-hydroxypropyl)-1H-pyrrole-3-carboxamide] | ≥ 7.00 |
| CS(=O)(=O)c1cccc(-c2cnc(Nc3cnc(C#N)cn3)cc2NCC2CCNCC2)c1 [Compound Y-132, 5-(5-(3-(Methylsulfonyl)phenyl)-4-(piperidin-4-ylmethylamino)pyridin-2-ylamino)pyrazine-2-carbonitrile] | 6.00 to 7.00 |
| CCCN1C2CCC1CC(Nc1cc(Nc3cnc(C#N)cn3)ncc1C(=O)OC)C2 (stereo not drawn) [Compound Y-079, Methyl 6-(5-cyanopyrazin-2-ylamino)-4-(8-propyl-8-azabicyclo[3.2.1]octan-3-ylamino)nicotinate] | ≥ 7.00 |
| N#Cc1cnc(Nc2cc(NCC3CCNCC3)c(C(=O)Nc3ccccc3F)cn2)cn1 [Compound Y-093, 6-(5-Cyanopyrazin-2-ylamino)-N-(2-fluorophenyl)-4-(piperidin-4-ylmethylamino)nicotinamide] | 6.00 to 7.00 |
| CCOC(=O)c1ccn(-c2cnc(Nc3cnc(C#N)cn3)cc2NCC2CCCNC2)c1 (stereo not drawn) [Compound Y-064, Ethyl 1-(6-(5-cyanopyrazin-2-ylamino)-4-(piperidin-3-ylmethylamino)pyridin-3-yl)-1H-pyrrole-3-carboxylate] | ≥ 7.00 |
| N#Cc1cnc(Nc2cc(NCC3CCNCC3)c(NC(=O)CCN3CCCCC3)cn2)cn1 [Compound Y-011, N-(6-(5-Cyanopyrazin-2-ylamino)-4-(piperidin-4-ylmethylamino)pyridin-3-yl)-3-(piperidin-1-yl)propanamide] | 5.00 to 6.00 |
| COC(=O)c1cnc(Nc2cnc(C#N)cn2)cc1NC(C)C1CCNCC1 (stereo not drawn) [Compound Y-022, Methyl 6-(5-cyanopyrazin-2-ylamino)-4-(1-(piperidin-4-yl)ethylamino)nicotinate] | ≥ 7.00 |
| COC(=O)c1cnc(Nc2cnc(C#N)cn2)cc1NC1CCNCC1 [Compound Y-078, Methyl 6-(5-cyanopyrazin-2-ylamino)-4-(piperidin-4-ylamino)nicotinate] | ≥ 7.00 |
| N#Cc1cnc(Nc2cc(NCCC3CCNCC3)ncn2)cn1 [Compound Z-029, 5-(6-(2-(Piperidin-4-yl)ethylamino)pyrimidin-4-ylamino)pyrazine-2-carbonitrile] | ≥ 6.00 and 6.00 to 7.00 |
